Measured values published in paper PMC6515931, “The Efflux Mechanism of Fraxetin-O-Glucuronides in UGT1A9-Transfected HeLa Cells: Identification of Multidrug Resistance-Associated Proteins 3 and 4 (MRP3/4) as the Important Contributors” (Frontiers in Pharmacology, 2019).

How the values were obtained:
UGT1A9 [1] = molecular target: T1, UGT1A9 (Homo sapiens, UniProt O60656); assay: Inhibition of fraxetin-O-glucuronide formation by selective UGT1A9 inhibitors; format: biochemical; set-up: purchased Corning Biosciences; details: fraxetin 4 and 20 μM; magnolol 1 μM, niflumic acid 10 μM, androsterone 10 μM
T1 sequence (O60656 26-530): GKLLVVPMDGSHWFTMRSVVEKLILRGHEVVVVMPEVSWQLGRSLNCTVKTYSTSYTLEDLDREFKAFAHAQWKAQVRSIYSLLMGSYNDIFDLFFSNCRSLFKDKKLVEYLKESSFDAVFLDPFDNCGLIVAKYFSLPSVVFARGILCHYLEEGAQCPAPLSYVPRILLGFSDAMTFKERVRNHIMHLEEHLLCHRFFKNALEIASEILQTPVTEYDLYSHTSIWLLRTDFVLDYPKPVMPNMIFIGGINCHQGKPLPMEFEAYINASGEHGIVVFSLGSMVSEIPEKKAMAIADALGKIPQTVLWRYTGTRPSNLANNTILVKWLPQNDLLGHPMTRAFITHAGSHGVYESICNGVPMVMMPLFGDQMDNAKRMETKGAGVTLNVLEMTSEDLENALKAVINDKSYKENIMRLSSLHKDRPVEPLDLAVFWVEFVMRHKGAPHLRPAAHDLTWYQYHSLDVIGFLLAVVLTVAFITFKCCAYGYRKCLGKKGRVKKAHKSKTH
Description: (§1) The incubation system was slightly modified on the basis of a previously published article ([Qin et al., 2018a]). […] After preincubation at 37°C for 5 min, UDPGA (3.5 mM) was added to the reaction system, and the mixture was incubated for another 30 min. These reactions were terminated by the addition of an equal volume of ice-cold acetonitrile. The mixed samples were centrifuged at 13800 × g for 10 min, and the supernatant was analyzed by ultra-high-performance liquid chromatography (UHPLC). All the experiments were conducted in triplicate.
(§2) Other detailed operations were the same as described above.

MRP3 = molecular target: T2, MRP3 (Homo sapiens, UniProt O15438); assay: shRNA-mediated partial silencing of MRP3 in HeLa1A9 cells, glucuronide excretion; format: cell-based; details: fraxetin 10 μM; for decrease in fraction metabolized (fmet; overall cellular glucuronidation) / reduction in excretion rate / reduction in excreted glucuronide: MRP3 knockdown; for reduction in excreted glucuronide: HeLa1A9 cells; for elevation of intracellular glucuronide level: MRP3 silencing
T2 construct: BCRP, MRP1, MRP3, and MRP4 were detected in both wild-type HeLa and HeLa1A9 cells; endogenous in cells
Description: (§3) The HeLa1A9 cells were pretreated and incubated with fraxetin solutions as reported previously ([Jiang et al., 2011]). Before assays, the HeLa1A9 cells were washed twice with prewarmed (37°C) Hank’s balanced salt solution (HBSS; pH = 7.4). After that, fraxetin (10 μM) dissolved in 2 mL of HBSS was incubated with the HeLa1A9 cells. At each time point (30, 60, 90, and 120 min), 200 μL of the culture supernatant from each well was collected as samples, and an equal volume of a loading media was used to replenish each well. Next, the collected samples were each mixed with 100 μL ice-cold acetonitrile. The supernatants were subjected to UHPLC analysis after centrifugation (10 min at 13800 × g).
(§4) In glucuronide excretion assays, biological inhibition mainly including shRNA-mediated partial silencing of BCRP and MRPs in HeLa cells was usually performed to evaluate the role of each efflux transporter ([Quan et al., 2015]; [Sun et al., 2015]; [Qin et al., 2018a]). Established shRNA_BCRP, shRNA_MRP1, shRNA_MRP3, and shRNA_MRP4 plasmids were […] transfected into HeLa1A9 cells to develop the stably shRNA-transfected cell lines, named HeLa1A9-BCRP-shRNA cells, HeLa1A9-MRP1-shRNA, HeLa1A9-MRP3-shRNA, and HeLa1A9-MRP4-shRNA cells, respectively. After transfection for 2 days, these engineered HeLa1A9 cells were subjected to fraxetin-O-glucuronide excretion experiments. The control scrambled shRNA served as a negative control.
(§5) In addition, the excretion rate of intracellular glucuronides was calculated using Equ. 2. Fraction metabolized or the fmet value was defined as the fraction of a dose metabolized based on Equ. 3. The fmet value was regarded as the more appropriate parameter to reflect the extent of drug metabolism in intact cells in the presence of a transporter–enzyme interplay.
(§6) (2) Excretion rate=VdC(excretedglucuronide)/dt
(§7) (3) fmet=excreted glucuronide+intracellular glucuronide/dosed aglycone
(§8) where V is the volume of the incubation medium, C is the excreted cumulative concentration of glucuronides, and t denotes the incubation time. Here, dC(excreted glucuronide)/dt describes the changes in glucuronide levels with time.

MRP4 = molecular target: T3, MRP4 (Homo sapiens, UniProt O15439); assay: shRNA-mediated partial silencing of MRP4 in HeLa1A9 cells, glucuronide excretion; format: cell-based; details: fraxetin 10 μM; for decreased excretion of glucuronide: HeLa1A9 cells
T3 construct: BCRP, MRP1, MRP3, and MRP4 were detected in both wild-type HeLa and HeLa1A9 cells; endogenous in cells
T3 sequence (O15439 1-1325): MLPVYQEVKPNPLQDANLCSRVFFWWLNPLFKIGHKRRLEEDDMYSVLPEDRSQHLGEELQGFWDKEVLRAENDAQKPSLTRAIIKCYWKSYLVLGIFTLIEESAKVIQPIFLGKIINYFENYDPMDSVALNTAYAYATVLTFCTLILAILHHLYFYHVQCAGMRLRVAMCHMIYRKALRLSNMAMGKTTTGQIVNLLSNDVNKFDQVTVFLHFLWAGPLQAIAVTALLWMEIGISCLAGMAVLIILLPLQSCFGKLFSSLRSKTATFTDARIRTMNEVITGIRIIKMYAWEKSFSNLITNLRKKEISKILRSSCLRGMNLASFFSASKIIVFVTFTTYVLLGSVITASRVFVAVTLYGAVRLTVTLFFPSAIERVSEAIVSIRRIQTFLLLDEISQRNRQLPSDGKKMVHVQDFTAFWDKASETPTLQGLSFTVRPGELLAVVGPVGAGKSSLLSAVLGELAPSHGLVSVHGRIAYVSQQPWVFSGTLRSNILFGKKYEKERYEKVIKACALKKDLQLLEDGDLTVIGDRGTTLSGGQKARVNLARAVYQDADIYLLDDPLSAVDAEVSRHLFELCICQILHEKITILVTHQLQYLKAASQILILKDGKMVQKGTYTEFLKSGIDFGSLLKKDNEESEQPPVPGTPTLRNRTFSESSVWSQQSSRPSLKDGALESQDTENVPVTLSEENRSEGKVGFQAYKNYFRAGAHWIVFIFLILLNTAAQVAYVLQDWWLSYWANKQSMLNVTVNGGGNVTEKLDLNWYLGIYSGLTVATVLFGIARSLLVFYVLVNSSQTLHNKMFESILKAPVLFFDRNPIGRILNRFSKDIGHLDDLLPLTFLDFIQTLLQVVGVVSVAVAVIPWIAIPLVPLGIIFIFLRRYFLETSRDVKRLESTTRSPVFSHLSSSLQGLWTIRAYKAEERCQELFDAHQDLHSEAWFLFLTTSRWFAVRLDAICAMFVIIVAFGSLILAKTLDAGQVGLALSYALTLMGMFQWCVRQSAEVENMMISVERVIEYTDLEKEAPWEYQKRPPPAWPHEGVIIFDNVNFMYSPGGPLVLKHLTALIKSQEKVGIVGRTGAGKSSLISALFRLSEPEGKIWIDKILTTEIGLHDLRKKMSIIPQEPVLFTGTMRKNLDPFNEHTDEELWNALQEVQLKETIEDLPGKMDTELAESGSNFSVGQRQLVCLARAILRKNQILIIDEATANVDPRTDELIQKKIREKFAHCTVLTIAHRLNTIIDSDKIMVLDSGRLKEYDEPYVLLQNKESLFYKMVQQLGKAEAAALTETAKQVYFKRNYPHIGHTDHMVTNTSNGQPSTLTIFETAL
Description: as §3, §4, §5, §6, §7, §8

HeLa1A9 cells = assay: Glucuronide excretion experiments in HeLa1A9 cells; format: cell-based, human; details: fraxetin 5, 10 and 20 μM; HeLa1A9 cells
Description: as §3, with “After that, fraxetin (10 μM) dissolved in 2 mL of HBSS was incubated with the HeLa1A9 cells.” left out
as §5, §6, §8

UGT1A9 [2] = molecular target: T1, UGT1A9
Description: as §1
The enzyme kinetic parameters were obtained by fitting appropriate kinetic models to the experimental data in GraphPad Prism V5 software (San Diego, CA, United States). The best model was selected based on visual inspection of the Eadie–Hofstee plots ([Qin et al., 2018b]). In brief, if the Eadie–Hofstee plot was linear, formation rates (V) of glucuronides at different substrate concentrations (C) were fitted to the standard equations (1): […]
Where Km is the Michaelis–Menten constant, and Vmax is the maximum rate of glucuronidation. The intrinsic clearance (CLint) was computed as Vmax/Km.

UGT1A9 [3] = molecular target: T1, UGT1A9; assay: Effect of Ko143 and MK571 on fraxetin-O-glucuronidation activity of UGT1A9; details: Ko143 20 μM
Description: as §1, §2

HeLa1A9 cell lysate = molecular target: T4, HeLa1A9 cell lysate (Homo sapiens, UniProt O60656); assay: Effect of Ko143 and MK571 on fraxetin-O-glucuronidation activity of HeLa1A9 cell lysate; format: biochemical; details: Ko143 20 μM
T4 sequence (O60656 26-530): T1 sequence (O60656 26-530)
Description: as §1, §2

T2 sequence (O15438 whole entry): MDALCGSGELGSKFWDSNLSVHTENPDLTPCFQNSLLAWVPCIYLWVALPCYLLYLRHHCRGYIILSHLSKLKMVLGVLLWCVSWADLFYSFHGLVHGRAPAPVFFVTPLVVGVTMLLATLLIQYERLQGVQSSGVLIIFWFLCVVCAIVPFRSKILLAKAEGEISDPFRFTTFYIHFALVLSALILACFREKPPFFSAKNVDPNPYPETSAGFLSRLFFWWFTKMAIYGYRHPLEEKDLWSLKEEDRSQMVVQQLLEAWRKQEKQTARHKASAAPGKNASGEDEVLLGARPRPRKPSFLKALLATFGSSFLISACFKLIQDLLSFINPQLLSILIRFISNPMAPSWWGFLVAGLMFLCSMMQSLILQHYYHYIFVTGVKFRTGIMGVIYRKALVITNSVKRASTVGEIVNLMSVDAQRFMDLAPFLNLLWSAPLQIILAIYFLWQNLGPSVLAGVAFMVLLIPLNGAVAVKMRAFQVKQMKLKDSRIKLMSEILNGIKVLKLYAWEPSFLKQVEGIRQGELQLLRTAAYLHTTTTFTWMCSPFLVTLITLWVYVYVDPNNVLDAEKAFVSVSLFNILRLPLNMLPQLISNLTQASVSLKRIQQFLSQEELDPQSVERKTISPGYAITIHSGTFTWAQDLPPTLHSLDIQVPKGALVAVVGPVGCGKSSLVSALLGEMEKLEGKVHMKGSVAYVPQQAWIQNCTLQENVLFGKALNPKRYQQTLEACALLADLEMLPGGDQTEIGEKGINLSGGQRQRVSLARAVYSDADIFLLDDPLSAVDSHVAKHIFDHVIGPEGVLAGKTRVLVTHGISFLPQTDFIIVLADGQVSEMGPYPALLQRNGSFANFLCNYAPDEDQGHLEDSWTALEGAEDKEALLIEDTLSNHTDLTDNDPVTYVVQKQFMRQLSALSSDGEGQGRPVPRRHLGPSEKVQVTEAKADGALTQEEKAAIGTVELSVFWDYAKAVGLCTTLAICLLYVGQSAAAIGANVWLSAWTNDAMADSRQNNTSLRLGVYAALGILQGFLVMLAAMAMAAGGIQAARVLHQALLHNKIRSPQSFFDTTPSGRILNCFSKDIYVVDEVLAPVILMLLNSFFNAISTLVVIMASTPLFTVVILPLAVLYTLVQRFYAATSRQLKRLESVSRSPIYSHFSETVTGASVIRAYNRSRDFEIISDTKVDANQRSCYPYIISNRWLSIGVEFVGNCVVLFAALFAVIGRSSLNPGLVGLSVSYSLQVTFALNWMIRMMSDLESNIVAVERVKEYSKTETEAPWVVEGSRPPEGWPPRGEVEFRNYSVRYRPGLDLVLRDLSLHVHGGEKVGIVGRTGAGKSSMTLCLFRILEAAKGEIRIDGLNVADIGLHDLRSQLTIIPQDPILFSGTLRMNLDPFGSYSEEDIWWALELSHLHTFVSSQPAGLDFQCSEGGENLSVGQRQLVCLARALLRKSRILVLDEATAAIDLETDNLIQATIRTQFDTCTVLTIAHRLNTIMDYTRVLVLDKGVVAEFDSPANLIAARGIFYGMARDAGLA

Row | SMILES | effect on formation of G1 and G2 (UGT1A9 [1]) | decrease in fraction metabolized (fmet; overall cellular glucuronidation) (MRP3) [%] | reduction in excretion rate (MRP3) [%] | reduction in excreted glucuronide (MRP3) | elevation of intracellular glucuronide level (MRP3) [%] | decrease in fraction metabolized (fmet) (MRP4) [%] | elevation of intracellular glucuronide (MRP4) [%] | reduction in excretion rate (MRP4) [%] | decreased excretion of glucuronide (MRP4) | excretion with elevation of the fraxetin concentration (HeLa1A9 cells) | Km (UGT1A9 [2]) [µM] | other results
1 | O=C(O)c1cccnc1Nc1cccc(C(F)(F)F)c1 [niflumic acid] | significantly inhibited |  |  |  |  |  |  |  |  |  |  | 
2 | C=CCc1ccc(O)c(-c2cc(CC=C)ccc2O)c1 [magnolol] | significantly inhibited |  |  |  |  |  |  |  |  |  |  | 
3 | COc1cc2ccc(=O)oc2c(O[C@@H]2O[C@H](C(=O)O)[C@@H](O)[C@H](O)[C@H]2O)c1O [G1, fraxetin-8-O-glucuronide] |  | 24.1 | 29.1 | 19.8–39.4% | 30.2 | 22.7 | 42.0 | 34.8 | 33.6–51.1% | markedly increased | 8 to 16 | 
4 | COc1ccc2c3c([nH]c2c1)[C@H](CC(C)C)N1C(=O)[C@H](CCC(=O)OC(C)(C)C)NC(=O)[C@@H]1C3 [Ko143] |  |  |  |  |  |  |  |  |  |  |  | inhibition of fraxetin-O-glucuronidation, G1 (UGT1A9 [3]): 41.5%; inhibition of fraxetin-O-glucuronidation, G2 (UGT1A9 [3]): 24.9%; inhibition of fraxetin-O-glucuronidation, G1 (HeLa1A9 cell lysate): 20.4%; inhibition of fraxetin-O-glucuronidation, G2 (HeLa1A9 cell lysate): 29.3%
5 | COc1cc2ccc(=O)oc2c(O)c1O[C@@H]1O[C@H](C(=O)O)[C@@H](O)[C@H](O)[C@H]1O [G2, fraxetin-7-O-glucuronide] |  | 18.6 | 21.1 | 15.1–31.9% | 45.4 | 23.1 | 52.4 | 32.3 | 33.0–42.4% | markedly increased | 8 to 16 | 
